From US12637473B2, “MDM2 protein degraders” (THE REGENTS OF THE UNIVERSITY OF MICHIGAN, priority 2016, dated 2026)

Key:
Format in all cases: cell-based
[1] = system: RS4; 11 cells with stable shRNA knockdown of p53; assay: Cell growth inhibition by WST assay, p53 knockdown cells; design: LogIC50: unit not given here; details: RS4;11 sh p53, 4 days; for IC50: Homo sapiens, 96 h
Experimental: (§1) RS4; 11 cells with stable shRNA knockdown of p53 or those transfected shRNA control vector were treated with Cpd. A, Cpd. B, Cpd. No. 14, Cpd. No. 21, Cpd. No. 15, and Cpd. No. 22 for 4 days, with a cell concentration of ˜15,000/well. Cell growth inhibition was determined by WST assay. See Table 7 (p53) and Table 8 (control). Significant increases in IC50 of the Compounds of the Disclosure in the p53 knockdown RS4; 11 cells were observed compared with that in the sh control cells. […] The p53 knockdown efficiency was determined by western blot for p53 protein levels with or without treatment of Cpd. A (1 μM) for 2 hours.

[2] = system: RS4; 11 cells transfected shRNA control vector; assay: Cell growth inhibition by WST assay, shRNA control cells; design: LogIC50: unit not given here; details: RS4;11 sh Control, 4 days; for IC50: Homo sapiens, 96 h
Experimental: as §1

MV4-11 cell line = assay: CellTiter-Glo Luminescent Cell Viability Assay, cell growth inhibition; details: Homo sapiens, 96 h, 4 days
Procedure, shortened: (§2)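 Cells plated at 2,000/well with serially diluted compounds, incubated 4 days at 37° C, 5% CO2. Viability read by CellTiter-Glo luminescence after 10-20 min at room temperature; IC50 from dose-response fit.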

RS4; 11 cell line = assay: as above; details: Homo sapiens, 96 h, 4 days
Procedure, shortened: as §2

[3] = system: p53 target genes: p21, PUMA and BAX; assay: Activation of p53 downstream target genes, quantitative real-time PCR; details: RS4; 11 cells; 0.3 μM; 3, 6, or 12 hours
Experimental: RS4; 11 cells were treated with Cpd. A (0.3 μM), Cpd. No. 15 (10 nM), and Cpd. No. 22 (10 nM) for 3, 6, or 12 hours, and then harvested and washed. Cellular mRNA samples were extracted from the cells and then subjected to Reverse Transcription and quantitative real-time PCR for the analysis of the mRNA levels of three representative p53 target genes: p21, that induces cell cycle arrest, and PUMA and BAX that leads to apoptosis. […] A, Cpd. No. 15, and Cpd. No. 22.

RS4; 11 cells = assay: Cell growth inhibition by WST assay with Cpd. C co-treatment (CRBN competition); design: LogIC50: unit not given here; details: 4 days
Experimental: RS4; 11 cells were pre-incubated with different concentrations of Cpd. C to compete for the binding of phthalimide to CRBN, or DMSO, for 2 hours before adding Cpd. A, Cpd. No. 14, Cpd. No. 15, and Cpd. No. 22. The cells were then co-treated with 10, 20, or 30 μM Cpd. C and increasing concentrations of Cpd. A, Cpd. No. 14, Cpd. No. 15, and Cpd. No. 22 for 4 days, with a starting cell concentration of ˜15,000/well. Cell growth inhibition was determined by the WST assay. […] No. 14, Cpd. No. 15, and Cpd. No. 22 with co-treatment of Cpd. C. The structure of Cpd.

COCCONC(=O)c1ccc(NC(=O)[C@@H]2NC3(CCCCC3)[C@@]3(C(=O)Nc4cc(Cl)ccc43)[C@H]2c2cccc(Cl)c2F)cc1 [Cpd. B, reference compound]
IC50 [1]: 5670 nM
HiliSlope [1]: −0.7973
LogIC50 [1]: 0.7537
IC50 [2]: 85.3 nM
HiliSlope [2]: −0.9620
LogIC50 [2]: −1.069

O=C(COc1cccc2c1C(=O)N(C1CCC(=O)NC1=O)C2=O)NCCCOCCOCCOCCCNC(=O)c1ccc(NC(=O)[C@@H]2NC3(CCCCC3)[C@@]3(C(=O)Nc4cc(Cl)ccc43)[C@H]2c2cccc(Cl)c2F)cc1 (stereo partly drawn) [Cpd. No. 2, (3′R,4'S,5′R)-6″-chloro-4′-(3-chloro-2-fluorophenyl)-N-(4-((1-((2-(2,6-dioxopiperidin-3-yl)-1,3-dioxoisoindolin-4-yl)oxy)-2-oxo-7,10,13-trioxa-3-azahexadecan-16-yl)carbamoyl)phenyl)-2″-oxodispiro[cyclohexane-1,2′-pyrrolidine-3′,3″-indoline]-5′-carboxamide]
IC50 (MV4-11 cell line): 157 nM
IC50 (RS4; 11 cell line): 85 nM

O=C1CCC(N2C(=O)c3cccc(NCCOCCOCCOCCOc4ccc(NC(=O)c5ccc(NC(=O)[C@@H]6NC7(CCCCC7)[C@@]7(C(=O)Nc8cc(Cl)ccc87)[C@H]6c6cccc(Cl)c6F)cc5)cc4)c3C2=O)C(=O)N1 (stereo partly drawn) [Cpd. No. 6, (3′R,4'S,5′R)-6″-chloro-4′-(3-chloro-2-fluorophenyl)-N-(4-((4-(2-(2-(2-(2-((2-(2,6-dioxopiperidin-3-yl)-1,3-dioxoisoindolin-4-yl)amino)ethoxy)ethoxy)ethoxy)ethoxy)phenyl)carbamoyl)phenyl)-2″-oxodispiro[cyclohexane-1,2′-pyrrolidine-3′,3″-indoline]-5′-carboxamide]
IC50 (MV4-11 cell line): 37 nM
IC50 (RS4; 11 cell line): 38 nM

O=C1CCC(N2Cc3c(NCCOCCOCCNC(=O)c4ccc(NC(=O)[C@@H]5NC6(CCCCC6)[C@@]6(C(=O)Nc7cc(Cl)ccc76)[C@H]5c5cccc(Cl)c5F)cc4)cccc3C2=O)C(=O)N1 (stereo partly drawn) [Cpd. No. 21, (3′R,4'S,5′R)-6″-chloro-4′-(3-chloro-2-fluorophenyl)-N-(4-((2-(2-(2-((2-(2,6-dioxopiperidin-3-yl)-1-oxoisoindolin-4-yl)amino)ethoxy)ethoxy)ethyl)carbamoyl)phenyl)-2″-oxodispiro[cyclohexane-1,2′-pyrrolidine-3′,3″-indoline]-5′-carboxamide]
IC50 (MV4-11 cell line): 2 nM
IC50 (RS4; 11 cell line): 4.4 nM
IC50 [1]: 4160 nM
HiliSlope [1]: −0.4410
LogIC50 [1]: 0.6196
IC50 [2]: 13.1 nM
HiliSlope [2]: −1.448
LogIC50 [2]: −1.882

O=C1CCC(N2C(=O)c3cccc(NCCCOCCOCCOCCCNC(=O)c4ccc(NC(=O)[C@@H]5NC6(CCCCC6)[C@@]6(C(=O)Nc7cc(Cl)ccc76)[C@H]5c5cccc(Cl)c5F)cc4)c3C2=O)C(=O)N1 (stereo partly drawn) [Cpd. No. 18, (3′R,4'S,5′R)-6″-chloro-4′-(3-chloro-2-fluorophenyl)-N-(4-((3-(2-(2-(3-((2-(2,6-dioxopiperidin-3-yl)-1,3-dioxoisoindolin-4-yl)amino)propoxy)ethoxy)ethoxy)propyl)carbamoyl)phenyl)-2″-oxodispiro[cyclohexane-1,2′-pyrrolidine-3′,3″-indoline]-5′-carboxamide]
IC50 (MV4-11 cell line): 5.2 nM
IC50 (RS4; 11 cell line): 7.4 nM

O=C1CCC(N2C(=O)c3cccc(NCCCCNC(=O)c4ccc(NC(=O)[C@@H]5NC6(CCCCC6)[C@@]6(C(=O)Nc7cc(Cl)ccc76)[C@H]5c5cccc(Cl)c5F)cc4)c3C2=O)C(=O)N1 (stereo partly drawn) [Cpd. No. 9, (3′R,4'S,5′R)-6″-chloro-4′-(3-chloro-2-fluorophenyl)-N-(4-((4-((2-(2,6-dioxopiperidin-3-yl)-1,3-dioxoisoindolin-4-yl)amino)butyl)carbamoyl)phenyl)-2″-oxodispiro[cyclohexane-1,2′-pyrrolidine-3′,3″-indoline]-5′-carboxamide]
IC50 (MV4-11 cell line): 163 nM
IC50 (RS4; 11 cell line): 10 nM

O=C1CCC(N2Cc3c(NCCOCCOCCOCCOCCNC(=O)c4ccc(NC(=O)[C@@H]5NC6(CCCCC6)[C@@]6(C(=O)Nc7cc(Cl)ccc76)[C@H]5c5cccc(Cl)c5F)cc4)cccc3C2=O)C(=O)N1 (stereo partly drawn) [Cpd. No. 23, (3′R,4'S,5′R)-6″-chloro-4′-(3-chloro-2-fluorophenyl)-N-(4-((14-((2-(2,6-dioxopiperidin-3-yl)-1-oxoisoindolin-4-yl)amino)-3,6,9,12-tetraoxatetradecyl)carbamoyl)phenyl)-2″-oxodispiro[cyclohexane-1,2′-pyrrolidine-3′,3″-indoline]-5′-carboxamide]
IC50 (MV4-11 cell line): 21 nM
IC50 (RS4; 11 cell line): 19 nM

O=C1CCC(N2C(=O)c3cccc(NCCCOCCOCCOCCCNC4CCN(C(=O)c5ccc(NC(=O)[C@@H]6NC7(CCCCC7)[C@@]7(C(=O)Nc8cc(Cl)ccc87)[C@H]6c6cccc(Cl)c6F)cc5)CC4)c3C2=O)C(=O)N1 (stereo partly drawn) [Cpd. No. 5, (3′R,4'S,5′R)-6″-chloro-4′-(3-chloro-2-fluorophenyl)-N-(4-(4-((3-(2-(2-(3-((2-(2,6-dioxopiperidin-3-yl)-1,3-dioxoisoindolin-4-yl)amino)propoxy)ethoxy)ethoxy)propyl)amino)piperidine-1-carbonyl)phenyl)-2″-oxodispiro[cyclohexane-1,2′-pyrrolidine-3′,3″-indoline]-5′-carboxamide]
IC50 (MV4-11 cell line): 15 nM
IC50 (RS4; 11 cell line): 2.2 nM

O=C(O)c1ccc(NC(=O)[C@@H]2NC3(CCCCC3)[C@@]3(C(=O)Nc4cc(Cl)ccc43)[C@H]2c2cccc(Cl)c2F)cc1 [Cpd. A, reference compound]
IC50 (MV4-11 cell line): 100 nM
IC50 (RS4; 11 cell line): 86 nM
activation of p53 downstream target genes (mRNA levels of p21, PUMA, BAX) [3]: Significant activation
HillSlope (RS4; 11 cells; + 10 uM Cpd. C): −1.569
IC50 (RS4; 11 cells; + 10 uM Cpd. C): 48.1 nM
LogIC50 (RS4; 11 cells; + 10 uM Cpd. C): −1.317
HillSlope (RS4; 11 cells; + 20 uM Cpd. C): −1.406
IC50 (RS4; 11 cells; + 20 uM Cpd. C): 39 nM
LogIC50 (RS4; 11 cells; + 20 uM Cpd. C): −1.409
HillSlope (RS4; 11 cells; + 30 uM Cpd. C): −1.411
IC50 (RS4; 11 cells; + 30 uM Cpd. C): 36.5 nM
LogIC50 (RS4; 11 cells; + 30 uM Cpd. C): −1.438
HillSlope (RS4; 11 cells; without Cpd. C): −1.496
LogIC50 (RS4; 11 cells; without Cpd. C): −1.030
IC50 (RS4; 11 cells; Homo sapiens, 96 h, without Cpd. C): 93.3 nM
IC50 [1]: 9830 nM
HiliSlope [1]: −0.4240
LogIC50 [1]: 0.9926
IC50 [2]: 97.5 nM
HiliSlope [2]: −1.155
LogIC50 [2]: −1.011

O=C1CCC(N2C(=O)c3cccc(NCCNC(=O)c4ccc(NC(=O)[C@@H]5NC6(CCCCC6)[C@@]6(C(=O)Nc7cc(Cl)ccc76)[C@H]5c5cccc(Cl)c5F)cc4)c3C2=O)C(=O)N1 (stereo partly drawn) [Cpd. No. 7, (3′R,4'S,5′R)-6″-chloro-4′-(3-chloro-2-fluorophenyl)-N-(4-((2-((2-(2,6-dioxopiperidin-3-yl)-1,3-dioxoisoindolin-4-yl)amino)ethyl)carbamoyl)phenyl)-2″-oxodispiro[cyclohexane-1,2′-pyrrolidine-3′,3″-indoline]-5′-carboxamide]
IC50 (MV4-11 cell line): 20 nM
IC50 (RS4; 11 cell line): 15 nM

O=C1CCC(N2C(=O)c3cccc(NCCCOCCCCOCCCNC(=O)c4ccc(NC(=O)[C@@H]5NC6(CCCCC6)[C@@]6(C(=O)Nc7cc(Cl)ccc76)[C@H]5c5cccc(Cl)c5F)cc4)c3C2=O)C(=O)N1 (stereo partly drawn) [Cpd. No. 17, (3′R,4'S,5′R)-6″-chloro-4′-(3-chloro-2-fluorophenyl)-N-(4-((3-(4-(3-((2-(2,6-dioxopiperidin-3-yl)-1,3-dioxoisoindolin-4-yl)amino)propoxy)butoxy)propyl)carbamoyl)phenyl)-2″-oxodispiro[cyclohexane-1,2′-pyrrolidine-3′,3″-indoline]-5′-carboxamide]
IC50 (MV4-11 cell line): 21 nM
IC50 (RS4; 11 cell line): 19 nM
